Data as given in US10059663B2, “Aromatic compound and use thereof” (Kyoto Pharmaceutical Industries, Ltd., priority 2013, dated 2018).

These compounds were tested on Mouse bone marrow-derived mesenchymal cell line ST2 cells (assay: Osteoblast differentiation test (alkaline phosphatase activity)). Conditions: ST-2, 96 h, at 0.1 μg/mL, 4 days of culture, absorbance at 405 nm, DMSO control = 100%, read-out: alkaline phosphatase activity (increase rate in absorbance, control as 100%).
Format: cell-based
Protocol: Mouse bone marrow-derived mesenchymal cell line ST2 cells (source of supply: RIKEN) were seeded in α-MEM medium containing 10% fetal bovine serum (source of supply: GIBCO BRL Cat. No. 12000-022) in a 96 well plate at a cell density of 4×10^3 cells/0.1 mL/well, and cultured for 24 hr under the conditions of 37° C., 5% CO2. Then, each test compound was added at a final concentration of 0.001-10 μM, and the final concentration 0.1% (v/v) of DMSO was added to the control. After 4 days of culture, alkaline phosphatase (ALP) activity was measured by the following method.
The medium in the cultured 96 well plate was removed, the cells were washed with PBS buffer (KCl 0.2 g/L, KH2PO4 0.2 g/L, Na2HPO4.12H2O 2.9 g/L, NaCl 8 g/L) (100 μL/well), cell lysate (10 mM MgCl2, 2% (v/v) Triton X-100) (50 μL/well) was added, and the mixture was stirred at room temperature for 3 min. A substrate solution (50 mM diethanolamine (Wako Pure Chemical Industries, Ltd. Cat. No. 099-03112), 20 mM […] (Nacalai Tesque Cat. No. 25019-81)) (50 μL/well) was added, and the mixture was left standing at room temperature for 9 min. 1N NaOH 50 μL/well was added to discontinue the reaction, and the absorbance at 405 nm was measured by a microplate reader (Dainippon Pharmaceutical Co., Ltd.)
An increase rate (%) in the absorbance by the test compound was calculated based on the absorbance of the control as 100%, and the differentiation degree of the osteoblast was evaluated.
With COc1cc(Nc2ccc(N3CC(OCCO)C3)cc2)c(NC(C)=O)cn1 [Example 1, N-(4-{4-[3-(2-hydroxyethoxy)azetidin-1-yl]phenylamino}-6-methoxypyridin-3-yl)acetamide] the activity at 0.1 µg/mL was ≥ 200%.
With COc1cc(Nc2ccc(N3CC(OCCO)C3)cc2)c([N+](=O)[O-])cc1F [Example 2, 2-{1-[4-(4-fluoro-5-methoxy-2-nitrophenylamino)phenyl]azetidin-3-yloxy}ethanol] the activity at 0.1 µg/mL was ≥ 200%.
With NC(=O)c1ccc([N+](=O)[O-])c(Nc2ccc(N3CC(OCCO)C3)cc2)c1 [Example 5, 3-{4-[3-(2-hydroxyethoxy)azetidin-1-yl]phenylamino}-4-nitrobenzamide] the activity at 0.1 µg/mL was ≥ 200%.
With CC(=O)c1ccc(C(N)=O)cc1Nc1ccc(N2CC(OCCO)C2)cc1 [Example 6, 4-acetyl-3-{4-[3-(2-hydroxyethoxy)azetidin-1-yl]phenylamino}benzamide] the activity at 0.1 µg/mL was ≥ 200%.
With COc1cc(Nc2ccc(N3CC(N4CCC(CO)CC4)C3)cc2)c(NC(C)=O)cn1 [Example 8, N-(4-{4-[3-(4-hydroxymethylpiperidin-1-yl)azetidin-1-yl]phenylamino}-6-methoxypyridin-3-yl)acetamide] the activity at 0.1 µg/mL was ≥ 200%.
For COc1cc(Nc2ccc(N3CC(N4CCOCC4)C3)cc2)c(NC(C)=O)cn1 [Example 9, N-{6-methoxy-4-[4-(3-morpholin-4-ylazetidin-1-yl)phenylamino]pyridin-3-yl}acetamide], the activity at 0.1 µg/mL was ≥ 200%.
In the case of COc1cc(Nc2ccc(N3CCN(CC(C)(C)C(=O)O)CC3)cc2)c([N+](=O)[O-])cc1F [Example 13, 3-{4-[4-(4-fluoro-5-methoxy-2-nitrophenylamino)phenyl]piperazin-1-yl}-2,2-dimethylpropionic acid], the activity at 0.1 µg/mL is reported as ≥ 200%.
COc1cc(Nc2ccc(N3CC(OCCNS(N)(=O)=O)C3)cc2)c(NC(C)=O)cn1 [Example 16, N-(4-{4-[3-(2-sulfamoylaminoethoxy)azetidin-1-yl]phenylamino}-6-methoxypyridin-3-yl)acetamide] was tested, and the activity at 0.1 µg/mL was ≥ 200%.
For CC(=O)c1ccc(C(N)=O)cc1Nc1ccc(OCCOC2CCOCC2)cc1 [Example 17, 4-acetyl-3-{4-[2-(tetrahydropyran-4-yloxy)ethoxy]phenylamino}benzamide], the activity at 0.1 µg/mL was ≥ 200%.
In the case of CC(F)(F)c1ccc(C(N)=O)cc1Nc1ccc(OCCOC2CCOCC2)cc1 [Example 18, 4-(1,1-difluoroethyl)-3-{4-[2-(tetrahydropyran-4-yloxy)ethoxy]phenylamino}benzamide], the activity at 0.1 µg/mL is reported as ≥ 200%.
In the case of CC(=O)c1ccc(C(N)=O)cc1Nc1ccc(OCCOC2CCS(=O)(=O)CC2)cc1 [Example 20, 4-acetyl-3-{4-[2-(1,1-dioxohexahydro-1λ^6-thiopyran-4-yloxy)ethoxy]phenylamino}benzamide], the activity at 0.1 µg/mL is reported as ≥ 200%.
For CC(=O)c1ccc(C(N)=O)cc1Oc1ccc(N2CC(OCCO)C2)cc1 [Example 28, 4-acetyl-3-{4-[3-(2-hydroxyethoxy)azetidin-1-yl]phenoxy}benzamide], the activity at 0.1 µg/mL was ≥ 200%.
In the case of CC(=O)c1ccc(C(N)=O)c(Oc2ccc(N3CC(OCCO)C3)cc2)c1 [Example 29, 4-acetyl-2-{4-[3-(2-hydroxyethoxy)azetidin-1-yl]phenoxy}benzamide], the activity at 0.1 µg/mL is reported as ≥ 200%.
With CC(=O)c1ccc(C(N)=O)cc1Oc1ccc(N2CCC(OCCO)CC2)cc1 [Example 30, 4-acetyl-3-{4-[4-(2-hydroxyethoxy)piperidin-1-yl]phenoxy}benzamide] the activity at 0.1 µg/mL was ≥ 200%.
In the case of CC(=O)c1ccc(C(N)=O)cc1Oc1ccc(OCCOC2CCOCC2)cc1 [Example 32, 4-acetyl-3-{4-[2-(tetrahydropyran-4-yloxy)ethoxy]phenoxy}benzamide], the activity at 0.1 µg/mL is reported as ≥ 200%.
In the case of CC(=O)c1ccc(C(N)=O)cc1Oc1ccc(OCCOCCOC(C)C)cc1 [Example 33, 4-acetyl-3-{4-[2-(2-isopropoxyethoxy)ethoxy]phenoxy}benzamide], the activity at 0.1 µg/mL is reported as ≥ 200%.
CC(=O)c1ccc(C(N)=O)cc1Oc1ccc(/C=C/COC2CCOCC2)cc1 [Example 34, 4-acetyl-3-{4-[3-(tetrahydropyran-4-yloxy)propenyl]phenoxy}benzamide] was tested, and the activity at 0.1 µg/mL was ≥ 200%.
In the case of NC(=O)c1ccc(C(F)F)c(Oc2ccc(OCCOC3CCOCC3)cc2)c1 [Example 35, 4-difluoromethyl-3-{4-[2-(tetrahydropyran-4-yloxy)ethoxy]phenoxy}benzamide], the activity at 0.1 µg/mL is reported as ≥ 200%.
With CC(F)c1ccc(C(N)=O)cc1Oc1ccc(OCCOC2CCOCC2)cc1 (stereo not shown) [Example 39, 4-(1-fluoroethyl)-3-{4-[2-(tetrahydropyran-4-yloxy)ethoxy]phenoxy}benzamide] the activity at 0.1 µg/mL was ≥ 200%.
CC(=O)c1ccc(C(N)=O)cc1Oc1ccc(COCCOC(C)C)cc1 [Example 40, 4-acetyl-3-[4-(2-isopropoxyethoxymethyl)phenoxy]benzamide] was tested, and the activity at 0.1 µg/mL was ≥ 200%.
CC(=O)c1ccc(C(N)=O)cc1Oc1ccc(COC2CCOCC2)cc1 [Example 41, 4-acetyl-3-[4-(tetrahydropyran-4-yloxymethyl)phenoxy]benzamide] was tested, and the activity at 0.1 µg/mL was ≥ 200%.
CCC(=O)Nc1cnc(OC)cc1Nc1ccc(N2CC(OCCO)C2)cc1 [Example 45] was tested, and the activity at 0.1 µg/mL was ≥ 200%.
For NC(=O)c1ccc(C(F)(F)F)c(Nc2ccc(N3CC(OCCO)C3)cc2)c1 [Example 47], the activity at 0.1 µg/mL was ≥ 200%.
For CNC(=O)c1ccc([N+](=O)[O-])c(Nc2ccc(N3CC(OCCO)C3)cc2)c1 [Example 48], the activity at 0.1 µg/mL was ≥ 200%.
NC(=O)c1ccc([N+](=O)[O-])c(Nc2ccc(OCCOC3CCOCC3)cc2)c1 [Example 50] was tested, and the activity at 0.1 µg/mL was ≥ 200%.
With CC(=O)c1ccc(C(N)=O)cc1Nc1ccc(OCCOC2CCOC2)cc1 (stereo not shown) [Example 53] the activity at 0.1 µg/mL was ≥ 200%.
For CC(=O)c1ccc(C(N)=O)c(Nc2ccc(OCCOC3CCOCC3)cc2)c1 [Example 57], the activity at 0.1 µg/mL was ≥ 200%.
In the case of CC(=O)c1ccc(C(N)=O)c(Nc2ccc(OCCOC3CCS(=O)(=O)CC3)cc2)c1 [Example 58], the activity at 0.1 µg/mL is reported as ≥ 200%.
With NC(=O)c1ccc(C(F)(F)F)c(Oc2ccc(N3CC(OCCO)C3)cc2)c1 [Example 62] the activity at 0.1 µg/mL was ≥ 200%.
For NC(=O)c1ccc([N+](=O)[O-])c(Oc2ccc(N3CCC(OCCO)CC3)cc2)c1 [Example 63], the activity at 0.1 µg/mL was ≥ 200%.
With NC(=O)c1ccc(C(F)(F)F)c(Oc2ccc(OCCOC3CCOCC3)cc2)c1 [Example 64] the activity at 0.1 µg/mL was ≥ 200%.
For CC(C)OCCOCCOc1ccc(Oc2cc(C(N)=O)ccc2C(F)(F)F)cc1 [Example 65], the activity at 0.1 µg/mL was ≥ 200%.
CC(=O)c1ccc(C(N)=O)cc1Oc1ccc(CCCOC2CCOCC2)cc1 [Example 66] was tested, and the activity at 0.1 µg/mL was ≥ 200%.
For CC(=O)c1ccc(C(N)=O)c(Oc2ccc(OCCOC3CCOCC3)cc2)c1 [Example 70], the activity at 0.1 µg/mL was ≥ 200%.
In the case of CC(F)(F)c1ccc(C(N)=O)cc1Oc1ccc(OCCOC2CCOCC2)cc1 [Example 74], the activity at 0.1 µg/mL is reported as ≥ 200%.
With NC(=O)c1ccc(C(F)(F)F)c(Oc2ccc(COC3CCOCC3)cc2)c1 [Example 82] the activity at 0.1 µg/mL was ≥ 200%.
With NC(=O)c1ccc(C(F)F)c(Oc2ccc(COC3CCOCC3)cc2)c1 [Example 83] the activity at 0.1 µg/mL was ≥ 200%.
With C[C@@H](O)c1ccc(C(N)=O)cc1Oc1ccc(N2CC(OCCO)C2)cc1 [Example 85] the activity at 0.1 µg/mL was ≥ 200%.
COc1cc(Nc2ccc(N3CC(O)C3)cc2)c(NC(C)=O)cn1 [Example 88] was tested, and the activity at 0.1 µg/mL was ≥ 200%.
In the case of COc1cc(Nc2ccc(N3CC(OCC4CCCO4)C3)cc2)c(NC(C)=O)cn1 (stereo not shown) [Example 89], the activity at 0.1 µg/mL is reported as ≥ 200%.
NC(=O)c1ccc([N+](=O)[O-])c(Nc2ccc(N3CC(OCC4CCCO4)C3)cc2)c1 (stereo not shown) [Example 90] was tested, and the activity at 0.1 µg/mL was ≥ 200%.
With CC(=O)Nc1ccc(C(N)=O)cc1Nc1ccc(N2CC(OCC3CCCO3)C2)cc1 (stereo not shown) [Example 91] the activity at 0.1 µg/mL was ≥ 200%.
CC(=O)c1ccc(C(N)=O)cc1Nc1ccc(N2CC(OCC3CCCO3)C2)cc1 (stereo not shown) [Example 92] was tested, and the activity at 0.1 µg/mL was ≥ 200%.
With C[C@@H](O)c1ccc(C(N)=O)cc1Oc1ccc(N2CC(CO)C2)cc1 [Example 94] the activity at 0.1 µg/mL was ≥ 200%.
CC(=O)c1ccc(C(N)=O)cc1Oc1ccc(N2CC(CO)C2)cc1 [Example 95] was tested, and the activity at 0.1 µg/mL was ≥ 200%.
For CC(=O)c1ccc(C(N)=O)cc1Oc1ccc(N2CC(O)C2)cc1 [Example 96], the activity at 0.1 µg/mL was ≥ 200%.
In the case of CC(=O)c1ccc(C(N)=O)cc1Oc1ccc(N2CCC2)cc1 [Example 97], the activity at 0.1 µg/mL is reported as ≥ 200%.

Each compound was assayed on female F344 rats (assay: Influence on bone density (ovariectomy, femur, DXA)). Conditions: at not more than 10 mg/kg; orally once per day, 6 or 7 days per week, 8 weeks; ovariectomized 12-week-old female F344 rats; femur by DXA.
Format: in vivo, rat
Description: 12-week-old female F344 rats (SLC) underwent ovariectomy or sham surgery under anesthesia. The test compound was suspended in 0.5% methylcellulose solution (Wako Pure Chemical Industries, Ltd. Cat. No. 133-14255) and orally administered once per day, 6 or 7 days per week, from two days after the surgery. A 0.5% methylcellulose solution was orally administered to a control group. At 8 weeks from the administration, they were euthanized by drawing the whole blood from the abdominal artery under anesthesia, and the left and right femurs were excised.
The soft tissues were removed from the excised femurs, and the bone density was measured by DXA device DCS-600R (Aloka Co., Ltd.). The bone density was evaluated for the whole femur as well as the whole divided into three equal portions of proximal end, diaphysis and distal end portion.
For COc1cc(Nc2ccc(N3CC(OCCO)C3)cc2)c(NC(C)=O)cn1 [Example 1, N-(4-{4-[3-(2-hydroxyethoxy)azetidin-1-yl]phenylamino}-6-methoxypyridin-3-yl)acetamide], the bone density was “significantly increased”.
In the case of CC(=O)c1ccc(C(N)=O)cc1Oc1ccc(OCCOC2CCOCC2)cc1 [Example 32, 4-acetyl-3-{4-[2-(tetrahydropyran-4-yloxy)ethoxy]phenoxy}benzamide], the bone density is reported as “significantly increased”.
